# Measured values from PubChem BioAssay AID179 (DTP/NCI, 2004).
# “And” between values parts separate entries of the source, which are not always exact repeats. Equal values may be shown once. The source made the active and inactive calls.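 The calls were made as follows: active = compounds giving half or more protection of infected cells from virus-caused growth loss, again on retest; inactive = the rest.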 Where a SMILES comes first, the peptide text is derived from it. Bridges are numbered along the chain shown (N, C = ends). [ ]: non-standard residue; d: D form. The star is where a group is joined. ξ: configuration not given here. X16 = O=C(/C=C/C=C/C=C/C=C/C=C/C(=O)*)NC1=C(O)CCC1=O; NMeA = CN[C@@H](C)C(=O)O; ξF = NC(Cc1ccccc1)C(=O)O; ξA = CC(N)C(=O)O
# Test system: CEM cells HIV-1 protection, formazan growth assay
# Test: NCI AIDS Antiviral Assay
# Settings: for IC50: measured here: growth of uninfected CEM cells
# In short: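 Protection of CEM cells against HIV-1 measured as cell growth via soluble formazan read-out, with five concentrations tested on both infected and uninfected cells; failure to protect may reflect toxicity.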
Structure (SMILES),EC50,IC50,outcome
CS(=O)(=O)NC12CCC(c3ccccc31)c1ccccc12,> 200 µM,> 200 µM,
Cc1ccc(-n2c(CSc3ccc(Cl)cc3)nnc2SCc2nc3ccccc3[nH]2)cc1,> 200 µM,120 µM,
N#Cc1c(N)[nH]c(=S)c(C#N)c1-c1ccccc1,> 200 µM,135 µM,
C[n+]1c(-c2ccc(/C=N/NC(=O)C(=O)N/N=C/c3ccc(-c4cn5ccccc5[n+]4C)cc3)cc2)cn2ccccc21,56.2 µM and > 200 µM,74.1 µM and > 200 µM,
Cc1cc(NS(=O)(=O)c2ccc(NC(=O)c3cccc4c(NNc5ccc(S(=O)(=O)N=C(N)N)cc5)c5ccccc5nc34)cc2)no1,> 158 µM,63.1 µM,
C/C(=N\NC(N)=S)c1ccc(Oc2ccccc2)cc1,,,inactive
Cc1cc(-c2ccc(Cl)cc2)c(C#N)c(=S)n1C1OC(CO)C(O)C(O)C1O (configuration not stated),> 200 µM,> 200 µM,
CCOC(=O)C(NC(=O)c1ccccc1)(N1CCOCC1)C(F)(F)F (configuration not stated),> 200 µM,> 200 µM,
Cc1ccc(S(=O)(=O)N2CCN(S(=O)(=O)c3ccc(C)cc3)Cc3ccccc3C2)cc1,> 200 µM,> 200 µM,
CCN(CC)CCn1c(C)nc2c1C(=O)c1nc(C)n(CCN(CC)CC)c1C2=O,> 200 µM,5.75 µM,
N#Cc1c(N2CCOCC2)ncn(-c2ccc(Cl)cc2)c1=O,> 200 µM,> 200 µM,
C[n+]1c(-c2ccc(/C=C/C=N\NC(=O)c3ccc(C(=O)N/N=C\C=C\c4ccc(-c5cn6ccccc6[n+]5C)cc4)cc3)cc2)cn2ccccc21,> 9.77 µM,> 9.77 µM,
COC(=O)C(CC(=O)c1cc2c(cc1I)OCO2)Cc1cc(OC)c(OC)c(OC)c1I (configuration not stated),> 14.8 µM,> 14.8 µM,
COC(=O)C1=C(\O)C[C@@]2(C)CC[C@@H](C(=O)OC)C2C/C=C\1C(=O)OC (some centres not stated),,,inactive
C/C=C1\[C@H]2C=C(C)C[C@@]1(N)c1ccc(=O)[nH]c1[C@@H]2O,> 479 µM,> 479 µM,
O=C(/C(=C/c1cccc(Cl)c1)c1ccccc1)c1ccccc1,> 8.51 µM,> 8.51 µM,
N#CCCN(CCC#N)c1ccc(/C=C(\NC(=O)c2cc([N+](=O)[O-])ccc2Cl)C(=O)Nc2ccccc2)cc1,> 13.2 µM,> 13.2 µM,
COC(=O)C1C(NCc2ccccc2)=CC(C)(C)C(C(=O)OC)C1c1ccccc1 (configuration not stated),> 200 µM,166 µM,
CCOC(=O)c1c(/C=N\Nc2ccccc2)nc2ccccc2c1-c1ccccc1,> 64.6 µM,26.3 µM,
CCN(CC)CCNc1ccc2ncn3c4c(OC)cccc4c(=O)c1c23,> 50.1 µM,0.871 µM,
CCOC(=O)c1cc(-c2ccc(OC)c(OC)c2)c[nH]1,> 200 µM,50.1 µM,

Structure (SMILES),EC50,IC50,outcome
CCN(CC)C1C2=C(CCCC2)OS(=O)(=O)C1c1ccccc1 (configuration not stated),> 40.7 µM,> 40.7 µM,
Cc1cc(C)n(C2=NS(=O)(=O)c3ccccc3N2C)n1,> 123 µM,> 123 µM,
[N-]=[N+]=Nc1ccc2c(c1)Sc1ccccc1N2CCCCN1CCN(Cc2ccc(C(=O)c3ccccc3)cc2)CC1,> 100 µM,6.03 µM,
CN(C)C(c1ccccc1)C1COC2Cc3ccccc3C1O2 (configuration not stated),> 200 µM,> 200 µM and 151 µM,
c1ccc(CC2(c3cc4ccccc4[nH]3)OCCO2)nc1,> 200 µM,174 µM,
O=C1OCC=C1COC1OC(CO)C(O)C(O)C1O (configuration not stated),> 200 µM,77.6 µM,
Cc1cn(CCCCCCOC(=O)NC(CCCNC(N)=O)C(=O)O)c(=O)[nH]c1=O (configuration not stated),> 200 µM,> 200 µM,
COC(=O)c1cc(=O)n(C)c2ccc(OC)cc12,> 200 µM,166 µM,
CC[C@H]1OC(=O)[C@H](C)[C@@H](OC2CC(C)(OC)C(O)C(C)O2)[C@H](C)[C@@H](OC2OC(C)CC(N(C)C)C2OC(=O)CCC2CCCC2)[C@](C)(O)C[C@@H](C)C(=O)[C@H](C)[C@@H](O)[C@]1(C)O (some centres not stated),> 100 µM,40.7 µM,
O=C1NN=C(c2c[nH]c3ccccc23)CC1NCc1ccccc1 (configuration not stated),> 200 µM,> 200 µM,
CCN(CC)CCNc1ccc(CO)c2oc3ccccc3c(=O)c12,> 363 µM,2.4 µM,
CN1C=c2c3c(ccc2=C2C=CC4C=C5OCOC5=CC4=C21)OCO3 (configuration not stated),> 20 µM,0.759 µM,
CC(CCOc1c2ccoc2cc2oc(=O)ccc12)C1=CC(=O)C(C)(C)O1 (configuration not stated),> 200 µM,> 200 µM,
CC1C(=O)C2C1CS2(=O)=O (configuration not stated),> 1260 µM,1120 µM,
Cc1cn(C2CC(N(O)C(N)=O)C(CO)O2)c(=O)[nH]c1=O (configuration not stated),> 200 µM,> 200 µM and 107 µM,
CC1OC(OC2C(O)C(O)C(N=C(N)N)C(O)C2N=C(N)N)C(OC2OC(CO)C(O)C(O)C2N(C)C=N)C1(O)CO (configuration not stated),,,inactive
COc1ccc(C(=O)/C=C/c2ccc(OCC#N)cc2)cc1OC,> 200 µM,3.31 µM,
CN(C)c1ccccc1CC(c1c[nH]c2ccccc12)c1c[nH]c2ccccc12,> 19.1 µM,> 19.1 µM,
N#C/C(=C/c1ccccc1)c1ccccc1,> 200 µM,39.8 µM,
O=CN(c1ccccc1)c1c([N+](=O)[O-])cc([N+](=O)[O-])c2c1=NCN=2,> 79.4 µM,> 79.4 µM,
O=C(NNC(=S)NC1CCCCC1)C12CC3CC(CC(C3)C1)C2,> 200 µM,> 200 µM,

Structure (SMILES),EC50,IC50,outcome
O=C(NS(=O)(=O)Nc1ccccc1)OC(c1ccccc1)c1ccccc1,> 200 µM,70.8 µM,
CN(C)CCNC(=O)c1cccc(C(=O)Nc2ccccc2)c1[N+](=O)[O-],> 200 µM,> 200 µM,
COC(OC)C(=O)[C@H]1[C@H](C(=O)OCC2OC(n3cc(C)c(=O)[nH]c3=O)CC2N=[N+]=[N-])C[C@H]2[C@@H]3CCC4=CC(=O)C=C[C@]4(C)[C@H]3[C@@H](O)C[C@@]21C (some centres not stated),0.0331 µM,13.2 µM,
O=C(NCC(O)COc1ccccc1)c1ccccc1O (configuration not stated),> 200 µM,115 µM,
O=C(/C=C\c1ccccc1-c1ccccc1)c1ccccc1,> 200 µM,> 200 µM,
CCC12C=CCN3CC[C@@]4(c5cc([C@@]6(C(=O)OC)CC7CN(C[C@]8(CC)OC78)[C@H](CC(C)=O)Cc7c6[nH]c6ccccc76)c(OC)cc5N(C)[C@H]4[C@@](O)(C(=O)OC)[C@@H]1OC(C)=O)[C@H]32 (some centres not stated),,,inactive
C[N+](C)(C)CC1Cc2ccccc2C1=O (configuration not stated),,,inactive
O=C(N/N=C/c1ccco1)c1cccnc1,> 200 µM,> 200 µM,
CC12OC3(C(O)C1O)C(C(=O)O[C@H]3CO[Si](C)(C)C(C)(C)C)C2S(=O)(=O)c1ccccc1 (some centres not stated),,,inactive
CC(C)(CCCCC(C)(C)C1NC(=O)N1)C1NC(=O)N1,> 200 µM,> 200 µM,
Cc1ccccc1NC(=O)/C(=N\NC(N)=S)C(C#N)c1ccccc1 (configuration not stated),> 186 µM,> 186 µM,
Cc1cn(C2CC(O)C(CN=[N+]=[N-])O2)c(=O)[nH]c1=O (configuration not stated),> 933 µM,> 933 µM,
Nc1c2cc3ccc2nc2ccc(cc12)OCCOCCOCCOCCOCCOCCO3,> 200 µM,> 200 µM,
N#Cc1c(Nc2nc3ccccc3s2)c2ccccc2n2c1nc1ccccc12,> 200 µM,> 200 µM,
O=S1(=O)C=C(c2ccccc2)C2(c3ccccc3)C=NNC21 (configuration not stated),> 200 µM,> 200 µM,
CC(O)C1(CNc2cc(Cl)nc(N)n2)CCCCC1 (configuration not stated),> 200 µM,85.1 µM,
CN(C)Cc1cc(N=Nc2ccccc2)cc(CN(C)C)c1O,> 200 µM,102 µM,
NS(=O)(=O)c1cc[n+]([O-])c2ccccc12,> 200 µM,55 µM,
CN(C)Cc1cc(C(=O)/C=C/c2ccccc2Cl)cc(CN(C)C)c1O,> 200 µM,7.24 µM,
Cc1cn([C@@H]2C[C@H]2CO)c(=O)[nH]c1=O,,,inactive
CCOC(=O)C1=C(O)C(=O)c2ccsc2C1=O,> 708 µM,120 µM,

Structure (SMILES),EC50,IC50,outcome
CS1(=O)=N/C(=N\C(=O)Nc2ccccc2)c2ccccc21 (configuration not stated),,,inactive
COc1cc2oc3ccccc3c(=O)c2cc1CSc1ccccc1N,> 14.5 µM,11 µM,
CC1CC(=O)Nc2cc(Cl)ccc2N1C(=O)C1CC1 (configuration not stated),> 200 µM,> 200 µM,
CC(NC1=NCCO1)c1ccccc1Cl (configuration not stated),,,inactive
COC1CC2CCC(C)[C@](O)(O2)C(=O)C(=O)N2CCCCC2C(=O)OC(C(C)CC2CCC(O)C(OC)C2)CC(=O)C(C)C=C(C)C(OC(=O)CN(C)C)C(OC)C(=O)C(C)CC(C)/C=C/C=C/C=C\1C (some centres not stated),> 200 µM,7.24 µM,
CC1C(=O)OC2C=CC3(C)C(=O)OC4OC5(c6ccoc6)CC1(O)C2(C)C43O5 (configuration not stated),> 200 µM,> 200 µM,
O=C(Nc1ccc(C(F)(F)F)cc1[N+](=O)[O-])C(=O)Nn1c(=S)[nH]c2ccccc2c1=O,> 79.4 µM,> 79.4 µM,
O=C(Nc1ccc(Cl)c(Cl)c1)OCCN1c2ccccc2Sc2ccccc21,> 200 µM,38 µM,
CCN1C[C@]2(COC)CCC(O)C34[C@@H]5C[C@@H]6C(O)[C@@H]5[C@](O)(C[C@@H]6OC)[C@@H](C(OC)[C@@H]32)[C@H]14 (some centres not stated),,,inactive
CCCCOC(=O)C1CN2C=CC=NC2=NC1(C(F)(F)F)C(F)(F)F (configuration not stated),,,inactive
CCOC(=O)CN(c1sc(C)c(C)c1C(=O)OCC)S(=O)(=O)c1ccc(C)cc1,> 200 µM,11.7 µM,
COc1ccc(CCc2ncc[nH]2)cc1,> 708 µM,> 708 µM,
CC(C)(Oc1ccc(C(=O)c2ccc(Cl)cc2)cc1Cl)C(=O)Nc1c(Cl)cccc1Cl,> 7.59 µM,> 7.59 µM,
CC1NC(=O)[C@H](C)N(C)C(=O)[C@@H]2CCCN2C(=O)[C@@H](NC(=O)C(Cc2ccccc2)NC(=O)/C=C/C=C/C=C/C=C/C=C/C(=O)NC2=C(O)CCC2=O)COC(=O)[C@@H]2CCCN2C1=O (some centres not stated) (X16-[ξF]SP[NMeA][ξA]P; ester 2-C),> 151 µM,> 151 µM,
N#C/C(=C\NC(=S)Nc1ccc(S(=O)(=O)Nc2ccccn2)cc1)C(N)=O,> 200 µM,> 200 µM,
O=C(CC1(O)C(=O)Nc2ccccc21)c1ccc(Cl)c(Cl)c1 (configuration not stated),,,inactive
O=C(O)OC12CCCCCC1C(=O)C1CCCCC12 (configuration not stated),> 200 µM,> 200 µM,
CSC1=NNC(SC)=NN1,> 200 µM,0.708 µM,
COc1ccc(C2OC(=O)c3ncccc32)cc1 (configuration not stated),> 200 µM,> 200 µM,
